Experimental data as given in patent US9522930B2, “Chartreusin analogues” (Leibniz-Institut Für Naturstoff-Forschung Und …, priority 2012, dated 2016).
In brackets after ≈: the same amount, converted by molar mass. Where two headings read alike, the source gives them in different places.

Key:
[1] = system: Mycobacterium vaccae 10670; test: Antimicrobial activity (MIC), test strain Mycobacterium vaccae 10670; type: cell-based
Source text: Antimicrobial (MIC value [μM]), cytotoxic (CC50 [μM] for HeLa) and antiproliferative (GI50 [μM] for HUVEC, K-562, HT-29 and MEL-HO) activities of chartreusin and its derivatives. Test strain: Mycobacterium vaccae 10670.

[2] = system: human umbilical vein endothelial cells HUVEC (ATCC CRL-1730); test: Growth inhibition (antiproliferative effect) of HUVEC; type: cell-based; details: read-out: antiproliferative GI50, HUVEC
Experimental: (§1) Compounds were assayed against human umbilical vein endothelial cells HUVEC (ATCC CRL-1730) and human chronic myeloid leukemia cells K-562 (DSM ACC 10) for their antiproliferative effects (GI50) and against human cervix carcinoma cells HeLa (DSM ACC 57) for their cytotoxic effects (CC50) as previously described (Scherlach, K., Partida-Martinez, L. P., Dahse, H. M. & Hertweck, C. Antimitotic rhizoxin derivatives from a cultured bacterial endosymbiont of the rice pathogenic fungus Rhizopus microsporus. Journal of the American Chemical Society 128, 11529-11536 (2006)).

[3] = Cytotoxicity against HeLa; details: human, HeLa cells (human cervix carcinoma, DSM ACC 57)
Experimental: as §1

[4] = system: human chronic myeloid leukemia cells K-562 (DSM ACC 10); test: Growth inhibition (antiproliferative effect) of K-562; type: cell-based; details: read-out: antiproliferative GI50, K-562
Experimental: as §1

[5] = system: human cervix carcinoma cells HeLa (DSM ACC 57); test: Cytotoxicity against HeLa; details: for CC50: read-out: cytotoxic CC50, HeLa, HeLa
Experimental: as §1

[6] = system: human HT-29 colon adenocarcinoma cells (ACC 299); test: Growth inhibition of HT-29 in the presence or absence of light; type: cell-based; details: Homo sapiens
Experimental: The human HT-29 colon adenocarcinoma cells (ACC 299) and the human MEL-HO (ACC 62) melanoma cells were grown as previously described (Ueberschaar, N.; Dahse, H.-M.; Bretschneider, T.; Hertweck, C. Angew. Chem. Int. Ed. 2013, 52, 6185-6189).

[7] = Mycolicibacterium vaccae, Test strain: Mycobacterium vaccae 10670, read-out: Antimicrobial MIC value, Mycobacterium vaccae
[8] = Mycolicibacterium vaccae, 10670, read-out: Antimicrobial MIC value, Mycobacterium vaccae
[9] = Test strain: Mycobacterium vaccae 10670, read-out: Antimicrobial MIC value, Mycobacterium vaccae

MIC [1, 7] [µM]	GI50 ([4]; Homo sapiens, K562) [µM]	GI50 ([6]; HT-29, 8 h, HT-29, 420 nm, 3 × 8 h, read-out: antiproliferative GI50, HT-29, 420 nm, 3 × 8 h) [µM]	GI50 ([6]; HT-29, HT-29, w/o light, read-out: antiproliferative GI50, HT-29, w/o light) [µM]	Compound	GI50 ([2]; Homo sapiens) [µM]	CC50 [3] [µM]	MIC [1, 8] [µM]	MIC [1, 9] [µM]	GI50 [2] [µM]	CC50 [5] [µM]	GI50 ([4]; K-562) [µM]	selectivity (GI50 HUVEC versus cytotoxic activity HeLa) ([5]; compared with Chartreusin, HUVEC GI50 similarly low, HeLa CC50 different)
8.9 (≈ 6.28 µg/mL)	8.79	–	–	COC1[C@@H](O)C(C)O[C@H](OC2[C@H](Oc3cccc4c(O)c5c(=O)oc6ccc(Br)c7c(=O)oc(c34)c5c67)OC(C)[C@H](O)[C@@H]2O)[C@@H]1O (stereo partly shown) [Bromchartreusin, 1-Bromochartreusin]	65.8	48.2	–	–	–	–	–	–
17.7 (≈ 12.5 µg/mL)	8.65	–	–	COC1[C@@H](O)C(C)O[C@H](OC2[C@H](Oc3cccc4c(O)c5c(=O)oc6cc(Br)cc7c(=O)oc(c34)c5c67)OC(C)[C@H](O)[C@@H]2O)[C@@H]1O (stereo partly shown) [(1→2)Abeobromchartreusin, (1→2)-Abeo-bromochartreusin]	25.1	26.1	–	–	–	–	–	–
19.1 (≈ 12.5 µg/mL)	11.6	–	–	CCc1cc2oc(=O)c3c(O)c4cccc(O[C@@H]5OC(C)[C@H](O)[C@H](O)C5O[C@H]5OC(C)[C@H](O)C(OC)[C@H]5O)c4c4oc(=O)c(c1)c2c34 (stereo partly shown) [(1→2)Abeohomochartreusin, (1→2)-Abeo-homochartreusin]	26.6	58.1	–	–	–	–	–	–
–	–	–	–	vinylchartarin-1,10 bis-1,4′-bipiperidine-1′-carboxylate	–	–	–	>100	> 68	> 68	> 68	–
2.5 (≈ 1.57 µg/mL)	31.6	–	–	COC1[C@@H](O)C(C)O[C@H](OC2[C@H](Oc3cccc4c(O)c5c(=O)oc6cccc7c(=O)oc(c34)c5c67)OC(C)[C@H](O)[C@@H]2O)[C@@H]1O (stereo partly shown) [Norchartreusin]	79.8	70.7	–	–	–	–	–	–
2.4 (≈ 1.54 µg/mL)	4.82	–	–	COC1[C@@H](O)C(C)O[C@H](OC2[C@H](Oc3cccc4c(O)c5c(=O)oc6ccc(O)c7c(=O)oc(c34)c5c67)OC(C)[C@H](O)[C@@H]2O)[C@@H]1O (stereo partly shown)	35	25.5	–	–	–	–	–	–
4.87 (≈ 3.12 µg/mL)	2.03	–	–	COC1[C@@H](O)C(C)O[C@H](OC2[C@H](Oc3cccc4c(O)c5c(=O)oc6cc(C)cc7c(=O)oc(c34)c5c67)OC(C)[C@H](O)[C@@H]2O)[C@@H]1O (stereo partly shown) [(1→2)Abeochartreusin, (1→2)-Abeo-chartreusin]	5.78	14.2	–	–	–	–	–	–
76 (≈ 49.9 µg/mL)	> 76	–	–	COc1ccc2oc(=O)c3c(O)c4cccc(O[C@@H]5OC(C)[C@H](O)[C@H](O)C5O[C@H]5OC(C)[C@H](O)C(OC)[C@H]5O)c4c4oc(=O)c1c2c34 (stereo partly shown) [Methoxychartreusin]	> 76	> 76	–	–	–	–	–	–
9.6 (≈ 6.28 µg/mL)	2.14	–	–	CCc1ccc2oc(=O)c3c(O)c4cccc(O[C@@H]5OC(C)[C@H](O)C(O)C5O[C@H]5OC(C)[C@H](O)C(OC)C5O)c4c4oc(=O)c1c2c34 (stereo partly shown) [Homochartreusin]	7.18	23.1	–	–	–	–	–	higher selectivity
–	–	–	–	Norchartarin-1,10 bis-1,4′-bipiperidine-1′-carboxylate	–	–	–	>100	52.3	> 71	52.2	–
19.2 (≈ 12.5 µg/mL)	64.1	26.9	33.2	C#Cc1ccc2oc(=O)c3c(O)c4cccc(O[C@@H]5OC(C)[C@H](O)[C@H](O)C5O[C@H]5OC(C)[C@H](O)C(OC)[C@H]5O)c4c4oc(=O)c1c2c34 (stereo partly shown) [Ethinylchartreusin, Ethynylchartreusin]	> 77	> 77	–	–	–	–	–	–

Compound	MIC [1, 7] [µM]	GI50 ([4]; Homo sapiens, K562) [µM]	GI50 ([6]; HT-29, 8 h, HT-29, 420 nm, 3 × 8 h, read-out: antiproliferative GI50, HT-29, 420 nm, 3 × 8 h) [µM]	GI50 ([6]; HT-29, HT-29, w/o light, read-out: antiproliferative GI50, HT-29, w/o light) [µM]	GI50 ([2]; Homo sapiens) [µM]	CC50 [3] [µM]	MIC [1, 8] [µM]	MIC [1, 9] [µM]	GI50 [2] [µM]	CC50 [5] [µM]	GI50 ([4]; K-562) [µM]	selectivity (GI50 HUVEC versus cytotoxic activity HeLa) ([5]; compared with Chartreusin, HUVEC GI50 similarly low, HeLa CC50 different)
Cc1ccc2oc(=O)c3c(OC(=O)N4CCC(N5CCCCC5)CC4)c4cccc(OC(=O)N5CCC(N6CCCCC6)CC5)c4c4oc(=O)c1c2c34 [Chartarin-1,10 bis-1,4′-bipiperidine-1′-carboxylate]	–	3.18	–	–	4.43	10.1	> 100	–	–	–	–	–
O=C(Oc1c2cccc(OC(=O)N3CCC(N4CCCCC4)CC3)c2c2oc(=O)c3c(Br)ccc4oc(=O)c1c2c43)N1CCC(N2CCCCC2)CC1 [Bromchartarin-1,10 bis-1,4′-bipiperidine-1′-carboxylate]	–	9.27	–	–	10	20.2	> 100	–	–	–	–	–
